Data on 1 compound can be found in patent US20240024350A1, “ANTI-CANCER COMPOSITION CONTAINING AURANOFIN AND MERCAPTO COMPOUND AND USE THEREOF” (SUN YAT-SEN UNIVERSITY, priority 2020, published 2024).

The test system of series [1] is A549 human lung cancer cells. As to the kind of experiment: MTT colorimetric proliferation / cell survival assay, A549. Type of series: cell-based. How it is done: (§1) A flask with the cancer cells required for the experiment, with an original culture solution discarded, was washed for three times with 2 mL of PBS, 1 mL of pancreatin was added for digestion for 30 s, and 2 mL of a medium was added to terminate the digestion. The cells were transferred to a centrifuge tube and centrifuged at 1000 rpm for 3 min, the supernatant was discarded, and 2 mL of a medium was added and blew 10 times to be mixed uniformly. 10 μL of a cell suspension was taken for cell counting, and spread on a 96-well plate, with 5000 cells per well and 3 duplications for each compound, and then the number of cells and cell wells was calculated. The amount of required cell suspension and the number of cells for medium dilution were calculated by cell counting. 100 μL of medium was plated with 5000 cells per well, pipetted and mixed uniformly, and the cells were inoculated using a volley, placed in an incubator for culture, and marked.
(§2) (2) The cells cultured in step (1) was taken, and discarded with the original medium. Auranofin mother liquor was diluted to a diluent with final concentrations of 0, 0.78125, 1.5625, 3.125, 6.25, 12.5, 25, 50 and 100 μM, and mixed uniformly. A volley (using 3 wells) was used to draw 100 μL of dilution per well, a 96-well plate was tilted, diluents with each concentration were added in sequence to the corresponding 3 marked wells carefully to prevent poking the cells, blown and sucked about 3 times to be mixed uniformly, marked, shaken for 3 times, and put into a CO2 incubator for culture. The above steps were repeated for each auranofin diluent.
(§3) After auranofin was added for culture for 1 hour, the mother liquor of the mercapto compound was diluted into […] and mixed uniformly. A volley (using 3 wells) was used to suck 20 μL of diluent per well, the 96-well plate was tilted, the diluents of different mercapto compounds were added in sequence to the corresponding 3 marked wells carefully to prevent poking the cells, blown and sucked about 3 times to be mixed uniformly, and put back to the incubator to continue culture.
(§4) After different mercapto compounds were added to cells for 24 h, 20 μL of MTT (with a concentration of 5 mg/mL in PBS) per well was added to the 96-well plate by a volley; and incubation was carried out at 37° C. for 4 h. At the end of incubation, the MTT mixture was sucked out, and DMSO was added at 130 μL/well using a volley.
(§5) According to the results of Table 1-2, the killing effect of auranofin in combination with various compounds (with 30% FBS) on HCT116 human colon cancer cells and the killing effect of the auranofin-TGTA (50 μM) in combination with other cancer cells (lung cancer, colon cancer, breast cancer, liver cancer, cervical cancer and gastric cancer cells) were further detected by using the same method as the above.

For series [2], the system named is MGC803 human gastric cancer cells. The series can be described thus: MTT cell survival assay, MGC803. The note with it: TGTA 50 μM. The format is cell-based. How it is done:
as §1, with “marked. […]” for “marked.”
as §5
Background: Formazan colour is commonly taken as a measure of viable cells.

The subject of series [3] is MCF-7 human breast cell cancer cells. The series can be described thus: MTT colorimetric proliferation / cell survival assay, MCF-7. Type of series: cell-based. How it is done: as §1, §2, §3, §4, §5
Series [4] relates to HCT-8 human colon adenocarcinoma cells. As to the kind of experiment: MTT colorimetric proliferation assay, HCT-8. Type of series: cell-based. The note with it: containing 40 mg/mL BSA; 200 μM of added compound. How it is done: as §1
(2) The cells cultured in step (1) was taken, and discarded with the original medium. Auranofin mother liquor was diluted to a diluent with final concentrations of 0, 0.78125, 1.5625, 3.125, 6.25, 12.5, 25, 50 and 100 μM, and mixed uniformly. […]

Series [5] relates to PC9 human lung cancer cells. The series can be described thus: MTT cell survival assay, PC9. Type of series: cell-based. The note with it: TGTA 50 μM. The protocol: as §1, with “marked. […]” for “marked.”
as §5

A further series relates to HepG2 cells. The series can be described thus: Cell uptake of auranofin (gold by ICP-MS) in HepG2 cells. Type of series: cell-based, human. How it is done: HepG2 cells were used as a test subject.
The cells were inoculated into a 6-well plate at 2×10^5 cell/well and incubated for 24 h.
After the incubation, the cell culture medium was replaced with 30% of FBS to stimulate a high-concentration mercapto environment under the normal physiological condition, and used as a control (without adding any reagents). The experimental group was added with 3 μM of auranofin for incubation at 37° C. for 10 min and then added with the mercapto compound (DEDT, β-mercaptoethanol or mercaptoethylamine) for incubation for 1 h (final concentration of DMSO in the system was 1%). After incubation, the cells were immediately washed for 3 times with PBS, 500 μL of ultrapure water was added to each well to break the cells, and after 15 min, the cell lysate was collected.
The collected cell lysate was dissolved by adding aqua regia and diluted with ultrapure water to a proper proportion. Inductively coupled plasma mass spectrometry (ICP-MS) was used for gold detection. The cell uptake rate of 3 μM […] without FBS was used as the control.
Wherein, the above uptake is the amount of gold (mg) in 1 g protein in the cell.

The next series relates to PCGR lung cancer cells. As to the kind of experiment: MTT cell survival assay, PCGR. The format is cell-based. The note with it: TGTA 50 μM. How it is done:
as §1, with “marked. […]” for “marked.”
as §5

Series [6] relates to Hela human cervical cancer cells. As to the kind of experiment: MTT cell survival assay, Hela. The note with it: TGTA 50 μM. The format is cell-based. The protocol: as §1, with “marked. […]” for “marked.”
as §5

Series [7] has as its system HepG-2 human liver cancer cells. As to the kind of experiment: MTT colorimetric proliferation / cell survival assay, HepG-2. The format is cell-based. The protocol: as §1, §2, §3, §4, §5
Series [8] has as its system colon cancer cell HCT116 xenograft. As to the kind of experiment: Mouse tumor model, HCT116 xenograft. Type of series: in vivo, BALB/Cann nu (Nude) mice. The note with it: HCT116 xenograft in nude mice; intraperitoneal once a day; auranofin 3 mg/kg/day, mercapto compound (β-mercaptoethanol or TGTA) 40 mg/kg/day. The protocol: Establishment of mouse tumor model: 2 million colon cancer cell HCT116 cells suspended in PBS were injected subcutaneously into the dorsal side of 5-7 week-old female BALB/Cann nu (Nude) mice to establish a xenograft model.
When the tumor volume reached about 50 mm^3 (3-4 days after tumor inoculation), mice were randomly divided into a control group and a treatment group, the control group was treated with corn oil, the treatment group was intraperitoneally injected with auranofin (3 mg/kg mouse body weight/day) in combination with various mercapto compounds (β-mercaptoethanol or TGTA, 40 mg/kg mouse body weight/day) once a day. When the tumor volume grew to 1000 mm^3, the mice were anesthetized and then sacrificed by dislocation of the cervical spine.

A further series relates to solid tumor models. The note with it: several solid tumor models; intraperitoneal injection; follow-up studies; cited from earlier work.
The test system of series [9] is acute lymphocytic leukemia cell P388. The note with it: mice inoculated with P388; earlier studies; cited from earlier work.

SMILES strings stand for the structures. Where two headings read alike, the source gives them in different places.

Regarding `CC(=O)OC[C@H]1O[C@@H]([S-])[C@H](OC(C)=O)[C@@H](OC(C)=O)[C@@H]1OC(C)=O.CCP(CC)CC.[Au+]` [Auranofin], the “Cell survival rate (%) A549” value in [1] (Lung cancer, TGTA 50 μM) amounted to 81 ± 7%. Besides, the IC50 in [1] (auranofin alone, without BSA/FBS, read-out: IC50 A549 Human lung cancer cells) was 4.2 µM; in series [1] (containing 40 mg/mL BSA, 200 μM of added compound, read-out: IC50 A549 Human lung cancer cells), 70.5 µM; in series [1] (under the normal physiological condition, auranofin alone, read-out: IC50 value, proliferation of A549 human lung cancer cells), more than 30 µM; in [1] (with 10% FBS, mercapto compound added 1 h after auranofin, MTT after 24 h, read-out: IC50 A549 Human lung cancer cells) it was 12.9 µM; in [3] (auranofin alone, without BSA/FBS, read-out: IC50 MCF-7 Human breast cell cancer cells), 3.4 µM; in series [3] (containing 40 mg/mL BSA, 200 μM of added compound, read-out: IC50 MCF-7 Human breast cell cancer cells) it was 39.7 µM. The IC50 in series [3] (under the normal physiological condition, auranofin alone, read-out: IC50 value, proliferation of MCF-7 human breast cell cancer cells) was more than 30 µM; in [3] (with 10% FBS, mercapto compound added 1 h after auranofin, MTT after 24 h, read-out: IC50 MCF-7 Human breast cell cancer cells), 5.7 µM; in series [4], 33.2 µM; in [7] (auranofin alone, without BSA/FBS, read-out: IC50 HepG2 Human liver cancer cells) it was 1.3 µM; in [7] (containing 40 mg/mL BSA, 200 μM of added compound, read-out: IC50 HepG-2 Human liver cancer cells), 16.6 µM; in [7] (under the normal physiological condition, auranofin alone, read-out: IC50 value, proliferation of HepG-2 human liver cancer cells), more than 30 µM. Also, the IC50 in [7] (with 10% FBS, mercapto compound added 1 h after auranofin, MTT after 24 h, read-out: IC50 HepG-2 Human liver cancer cells) amounted to 3 µM. Further, the “Cell survival rate (%) MGC803” value in series [2] is 79 ± 3%. In series [3] (breast cancer, TGTA 50 μM), the “Cell survival rate (%) MCF-7” value was determined as 80 ± 2%. Also, the “Cell survival rate (%) PC9” value in series [5] was found to be 93 ± 3%. This compound came in with an uptake of gold with HepG2 cells of 728 mg/g protein. Moreover, the “Cell survival rate (%) PCGR” value with PCGR lung cancer cells was 37 ± 4%. Moreover, the “Cell survival rate (%) Hela” value in series [6] amounted to 46 ± 7%. Also, in series [7] (Liver cancer, TGTA 50 μM), the “Cell survival rate (%) HepG2” value turned out to be 87 ± 1%. Further, the growth of tumors entry in series [8] was “not effectively inhibited”. The “life span of mice and growth of tumors” value in the series on solid tumor models is given as “could neither prolong the life span of mice nor inhibit the growth of tumors”. Also, the “life span of mice” value in series [9] is given as “effectively prolong the life span”.
